The text below walks through data of patent publication US8822517B2, “Arylosulfonamides for the treatment of CNS diseases” (Adamed SP. Z O.O., priority 2010, dated 2014).

One assay deals with adrenergic α1 receptor. The experiment in a line: Binding assay α1 (non-selective), [3H]prazosin, rat cerebral cortex. Particulars: percent inhibition of control specific binding; compounds tested at 1×10^−6 M. On the procedure: (§1) The specific ligand binding to the receptors is defined as the difference between the total binding and the nonspecific binding determined in the presence of an excess of so unlabelled ligand.
(§2) The specific Ligand binding to the receptor is defined as the difference between total and non-specific binding determined in the presence of an excess of unlabelled ligand. The compounds were tested at a concentration of 1×10^−6 M, and scintillation counting was the method of detection of ligand binding.

Assay [1] concerns the target serotoninergic 5-HT7 receptor (Homo sapiens, UniProt P34969). The experiment in a line: Binding assay 5-HT7 (h), [3H]LSD, CHO cells. The following applies: for inhibition at 1 µM: read-out: 5-HT7. Details: expressed in transfected cells; host or cells: CHO cells. On the procedure:
as §1, §2

The target in another assay is dopaminergic D2 receptor (Homo sapiens, UniProt P14416). Kind of assay: Binding assay D2S (h), [3H]methyl-spiperone, HEK-293 cells. Details: expressed in transfected cells; host or cells: HEK-293 cells. Particulars: for inhibition at 1 µM: read-out: D2 [%]. As to the method: as §1, §2
Assay [2] addresses T1, serotoninergic 5-HT1A receptor (Homo sapiens, UniProt P08908).
T1 sequence (P08908 1-422): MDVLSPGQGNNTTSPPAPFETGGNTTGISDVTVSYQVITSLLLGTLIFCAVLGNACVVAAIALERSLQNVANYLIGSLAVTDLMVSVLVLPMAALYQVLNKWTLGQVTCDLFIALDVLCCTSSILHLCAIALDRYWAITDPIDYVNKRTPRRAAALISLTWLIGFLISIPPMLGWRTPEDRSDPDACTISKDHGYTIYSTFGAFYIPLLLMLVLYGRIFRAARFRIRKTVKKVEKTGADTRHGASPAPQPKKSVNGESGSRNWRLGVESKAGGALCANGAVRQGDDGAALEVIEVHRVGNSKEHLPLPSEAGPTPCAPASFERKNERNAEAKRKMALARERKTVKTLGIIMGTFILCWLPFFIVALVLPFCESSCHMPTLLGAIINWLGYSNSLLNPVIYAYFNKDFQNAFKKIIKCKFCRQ
Kind of assay: Binding assay 5-HT1A (h), [3H]8-OH-DPAT, HEK-293 cells. The arrangement: expressed in transfected cells; host or cells: HEK-293 cells. The following applies: for inhibition at 1 µM: read-out: 5-HT1A. As to the method: as §1, §2

The target in assay [3] is serotoninergic 5-HT6 receptor (Homo sapiens, UniProt P50406). The experiment in a line: Binding assay 5-HT6 (h), [3H]LSD, CHO cells. The arrangement: expressed in transfected cells; host or cells: CHO cells. The following applies: for inhibition at 1 µM: read-out: 5-HT6. As to the method: as §1, §2
Another assay has as its target dopaminergic D3 receptor (Homo sapiens, UniProt P35462). The experiment in a line: Binding assay D3 (h), [3H]methyl-spiperone, CHO cells. The arrangement: expressed in transfected cells; host or cells: CHO cells. The following applies: for inhibition at 1 µM: read-out: D3 [%]. On the procedure: as §1, §2
For assay [4], the target named is serotoninergic 5-HT2A receptor (Homo sapiens, UniProt P28223). The experiment in a line: Binding assay 5-HT2A (h), [3H]ketanserin, HEK-293 cells. Details: expressed in transfected cells; host or cells: HEK-293 cells. The following applies: for inhibition at 1 µM: read-out: 5-HT2A. On the procedure:
as §1, §2

In assay [5] the target is T2, serotonine transporter (SERT) receptor (Homo sapiens, UniProt P31645).
T2 construct: expressed in transfected cells; host or cells: CHO cells
Kind of assay: Binding assay SERT (h), [3H]imipramine, CHO cells. The following applies: for inhibition at 1 µM: read-out: SERT [%]. As to the method:
as §1, §2

[6] abbreviates: percent inhibition of control specific binding, compounds tested at 1×10^−6 M.

Sequence of serotoninergic 5-HT7 receptor (P34969 whole entry): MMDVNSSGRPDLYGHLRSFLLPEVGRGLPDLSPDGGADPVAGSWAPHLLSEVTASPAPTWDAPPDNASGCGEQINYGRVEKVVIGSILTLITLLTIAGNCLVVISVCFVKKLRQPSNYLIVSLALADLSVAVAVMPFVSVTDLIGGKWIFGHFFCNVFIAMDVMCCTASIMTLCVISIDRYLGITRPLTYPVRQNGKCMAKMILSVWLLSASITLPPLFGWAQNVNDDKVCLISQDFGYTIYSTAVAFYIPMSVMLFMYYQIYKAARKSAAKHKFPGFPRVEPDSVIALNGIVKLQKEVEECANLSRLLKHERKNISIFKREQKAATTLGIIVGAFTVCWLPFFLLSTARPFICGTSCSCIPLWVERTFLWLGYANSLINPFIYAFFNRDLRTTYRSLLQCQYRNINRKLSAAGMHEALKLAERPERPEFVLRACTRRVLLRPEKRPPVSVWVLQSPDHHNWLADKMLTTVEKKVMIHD
Sequence of serotoninergic 5-HT2A receptor (P28223 whole entry): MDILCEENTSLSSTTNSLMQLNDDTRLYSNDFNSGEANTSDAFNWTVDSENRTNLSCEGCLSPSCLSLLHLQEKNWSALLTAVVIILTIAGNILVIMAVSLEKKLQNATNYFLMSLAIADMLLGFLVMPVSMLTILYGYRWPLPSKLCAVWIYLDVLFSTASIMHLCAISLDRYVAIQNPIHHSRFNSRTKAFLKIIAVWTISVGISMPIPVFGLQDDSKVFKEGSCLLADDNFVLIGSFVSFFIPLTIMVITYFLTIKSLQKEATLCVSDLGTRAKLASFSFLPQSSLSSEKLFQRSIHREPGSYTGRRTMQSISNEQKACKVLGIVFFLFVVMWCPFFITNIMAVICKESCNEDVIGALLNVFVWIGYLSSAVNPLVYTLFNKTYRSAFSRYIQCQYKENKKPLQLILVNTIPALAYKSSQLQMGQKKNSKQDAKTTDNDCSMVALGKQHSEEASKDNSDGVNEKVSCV
Sequence of dopaminergic D3 receptor (P35462 whole entry): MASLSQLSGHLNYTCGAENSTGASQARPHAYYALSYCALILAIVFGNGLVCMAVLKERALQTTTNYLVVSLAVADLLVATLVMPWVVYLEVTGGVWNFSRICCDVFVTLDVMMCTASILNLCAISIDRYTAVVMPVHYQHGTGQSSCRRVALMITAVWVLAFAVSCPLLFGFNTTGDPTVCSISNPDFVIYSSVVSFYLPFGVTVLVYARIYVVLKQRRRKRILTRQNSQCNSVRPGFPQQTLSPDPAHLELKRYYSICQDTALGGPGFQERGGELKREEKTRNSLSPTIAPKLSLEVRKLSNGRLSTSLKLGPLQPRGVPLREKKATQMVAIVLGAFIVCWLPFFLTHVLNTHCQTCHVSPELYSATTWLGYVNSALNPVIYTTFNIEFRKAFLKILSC
T2 sequence (P31645 whole entry): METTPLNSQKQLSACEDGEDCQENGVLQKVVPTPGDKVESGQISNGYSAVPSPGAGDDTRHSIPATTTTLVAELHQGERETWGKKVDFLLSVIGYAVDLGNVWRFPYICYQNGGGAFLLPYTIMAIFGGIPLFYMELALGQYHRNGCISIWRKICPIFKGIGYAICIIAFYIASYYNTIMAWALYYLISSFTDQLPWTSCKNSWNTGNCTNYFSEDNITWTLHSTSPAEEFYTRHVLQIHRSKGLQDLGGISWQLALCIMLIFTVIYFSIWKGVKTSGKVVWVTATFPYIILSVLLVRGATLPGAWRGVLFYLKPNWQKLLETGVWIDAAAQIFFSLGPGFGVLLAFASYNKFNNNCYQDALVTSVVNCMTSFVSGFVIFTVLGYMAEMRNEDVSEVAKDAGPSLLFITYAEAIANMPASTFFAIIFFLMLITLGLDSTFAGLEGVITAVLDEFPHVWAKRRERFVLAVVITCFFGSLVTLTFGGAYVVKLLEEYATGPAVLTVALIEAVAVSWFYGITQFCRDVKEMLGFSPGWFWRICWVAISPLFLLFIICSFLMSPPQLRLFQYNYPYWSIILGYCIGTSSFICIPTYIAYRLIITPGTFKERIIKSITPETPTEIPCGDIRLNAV
Sequence of dopaminergic D2 receptor (P14416 1-414 isoform P14416-2): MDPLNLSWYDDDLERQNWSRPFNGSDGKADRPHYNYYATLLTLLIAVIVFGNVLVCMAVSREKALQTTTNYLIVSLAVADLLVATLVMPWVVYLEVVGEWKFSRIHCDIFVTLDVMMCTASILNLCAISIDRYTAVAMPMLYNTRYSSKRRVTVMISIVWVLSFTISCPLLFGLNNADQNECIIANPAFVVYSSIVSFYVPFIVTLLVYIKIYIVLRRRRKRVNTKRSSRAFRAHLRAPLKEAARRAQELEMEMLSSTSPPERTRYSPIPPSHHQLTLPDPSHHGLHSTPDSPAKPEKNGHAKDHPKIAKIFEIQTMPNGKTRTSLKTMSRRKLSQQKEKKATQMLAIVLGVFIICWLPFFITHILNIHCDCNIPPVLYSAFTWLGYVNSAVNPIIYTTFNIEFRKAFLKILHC
Sequence of serotoninergic 5-HT6 receptor (P50406 whole entry): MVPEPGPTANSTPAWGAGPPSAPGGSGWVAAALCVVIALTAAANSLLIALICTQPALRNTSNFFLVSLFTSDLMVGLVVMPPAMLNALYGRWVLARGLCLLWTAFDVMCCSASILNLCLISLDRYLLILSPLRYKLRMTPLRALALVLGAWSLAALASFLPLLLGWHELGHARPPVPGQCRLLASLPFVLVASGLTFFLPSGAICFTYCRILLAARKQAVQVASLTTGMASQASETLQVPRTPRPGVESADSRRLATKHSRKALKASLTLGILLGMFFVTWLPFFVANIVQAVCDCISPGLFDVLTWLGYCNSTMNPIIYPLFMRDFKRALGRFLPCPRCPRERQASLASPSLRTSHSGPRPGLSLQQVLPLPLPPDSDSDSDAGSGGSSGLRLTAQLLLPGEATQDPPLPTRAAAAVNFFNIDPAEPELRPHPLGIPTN

With `COc1ccc(S(=O)(=O)NCCCCN2CC=C(c3c[nH]c4ccc(Cl)cc34)CC2)cc1` [Compound 42, 4-Methoxy-N{4-[4-(5-chloro-1H-indol-3-yl)-3,6-dihydropyridin-1(2H)-yl]butyl}benzenesulphonamide], the “α1 [%]” value in the assay on adrenergic α1 receptor is 77%. Further, the 5-HT7 in assay [1] (setting [6]) amounted to 76%. Also, at dopaminergic D2 receptor (setting [6]), the “D2 [%]” value was 74%. In assay [2] (setting [6]), this molecule came in with a 5-HT1A of 90%. Moreover, the 5-HT6 in assay [3] (setting [6]) was 96%. Also, the “D3 [%]” value on dopaminergic D3 receptor (setting [6]) turned out to be 101%. The 5-HT2A in assay [4] (setting [6]) came out at 77%. Besides, the “SERT [%]” value in assay [5] (setting [6]) was 96%.
`O=S(=O)(NCCCN1CCN(c2nsc3ccccc23)CC1)c1ccc2cc(Cl)ccc2c1` [Compound 62, N-[3-[4-(1,2-Benzothiazol-3-yl)piperazin-1-yl]propyl]-6-chloro-naphthalene-2-sulphonamide]: the “α1 [%]” value in the assay with adrenergic α1 receptor is listed as 61%. For the same molecule, the inhibition at 1 µM in assay [1] was 78%; at dopaminergic D2 receptor it was 92%; in assay [2] it was 46%; in assay [3], 69%; on dopaminergic D3 receptor, 63%; in assay [4], 101%. Besides, the inhibition at 1 µM in assay [5] was found to be 15%.
In the case of `O=S(=O)(NCCCCN1CCN(c2nsc3ccccc23)CC1)c1cccc(Cl)c1` [Compound 69, N-[4-[4-(1,2-Benzothiazol-3-yl)piperazin-1-yl]butyl]-3-chlorobenzenesulphonamide], the “α1 [%]” value with adrenergic α1 receptor was 94%. In addition, the inhibition at 1 µM turned out to be 96% in assay [1]; 106% on dopaminergic D2 receptor; 80% in assay [2]; 88% in assay [3]; 77% on dopaminergic D3 receptor; 92% in assay [4]. Further, the inhibition at 1 µM in assay [5] worked out at 6%.
Consider `O=S(=O)(NCCCCN1CCN(c2nsc3ccccc23)CC1)c1cccc(F)c1` [Compound 71, N-[4-[4-(1,2-Benzothiazol-3-yl)piperazin-1-yl]butyl]-3-fluorobenzenesulphonamide], for which the “α1 [%]” value in the assay on adrenergic α1 receptor is recorded as 99%. Also, the inhibition at 1 µM in assay [1] was 99%; at dopaminergic D2 receptor, 103%; in assay [2], 89%; in assay [3], 76%; at dopaminergic D3 receptor, 91%; in assay [4], 94%. The inhibition at 1 µM in assay [5] worked out at 41%.
For `O=S(=O)(NCCCN1CCN(c2nsc3ccccc23)CC1)c1cccc(F)c1` [Compound 72, N-[3-[4-(1,2-Benzothiazol-3-yl)piperazin-1-yl]propyl]-3-fluorobenzenesulphonamide], the “α1 [%]” value with adrenergic α1 receptor is recorded as 93%. Moreover, the inhibition at 1 µM in assay [1] amounted to 101%; on dopaminergic D2 receptor it was 99%; in assay [2] it was 95%; in assay [3], 78%; at dopaminergic D3 receptor, 95%; in assay [4], 94%. Also, in assay [5], the inhibition at 1 µM amounted to 44%.
For `N#Cc1cccc(S(=O)(=O)NCCCCN2CCN(c3nsc4ccccc34)CC2)c1` [Compound 73, N-[4-[4-(1,2-Benzothiazol-3-yl)piperazin-1-yl]butyl]-3-cyanobenzenesulphonamide], the “α1 [%]” value in the assay on adrenergic α1 receptor is reported as 98%. In addition, the inhibition at 1 µM in assay [1] was 91%; at dopaminergic D2 receptor it was 102%; in assay [2] it was 92%; in assay [3], 82%; on dopaminergic D3 receptor, 94%; in assay [4], 81%. Besides, in assay [5], the inhibition at 1 µM stood at 37%.
For the molecule `O=S(=O)(NCCCN1CCN(c2nsc3ccccc23)CC1)c1cnc2ccccn12` [Compound 76, N-[3-[4-(1,2-Benzothiazol-3-yl)piperazin-1-yl]propyl]imidazo[1,2-a]pyridine-3-sulphonamide], in the assay on adrenergic α1 receptor, the “α1 [%]” value is 95%. Besides, the inhibition at 1 µM in assay [1] was 86%; on dopaminergic D2 receptor it was 94%; in assay [2] it was 90%; in assay [3] it was 70%; at dopaminergic D3 receptor, 71%; in assay [4], 81%. The inhibition at 1 µM in assay [5] was 15%.
Consider `O=S(=O)(NCCCCN1CCN(c2noc3ccccc23)CC1)c1cccc(Cl)c1` [Compound 85, N-[4-[4-(1,2-Benzoxazol-3-yl)piperazin-1-yl]butyl]-3-chlorobenzenesulphonamide], for which, in the assay on adrenergic α1 receptor, the “α1 [%]” value is reported as 98%. Besides, the inhibition at 1 µM in assay [1] was 99%; on dopaminergic D2 receptor it was 100%; in assay [2] it was 54%; in assay [3], 77%; on dopaminergic D3 receptor it was 77%; in assay [4], 88%. The inhibition at 1 µM in assay [5] was 2%.
As to `O=S(=O)(NCCCCN1CCN(c2noc3ccccc23)CC1)c1cccc(F)c1` [Compound 87, N-[4-[4-(1,2-Benzoxazol-3-yl)piperazin-1-yl]butyl]-3-fluorobenzenesulphonamide], the “α1 [%]” value with adrenergic α1 receptor was 98%. Further, the inhibition at 1 µM in assay [1] stood at 90%; on dopaminergic D2 receptor, 87%; in assay [2], 41%; in assay [3], 67%; on dopaminergic D3 receptor, 77%; in assay [4] it was 89%. Besides, the inhibition at 1 µM in assay [5] came out at 2%.
As for `O=S(=O)(NCCCCN1CCN(c2cccc3c2OCCO3)CC1)c1ccc2cc(Cl)ccc2c1` [Compound 387, 6-Chloro-N-[4-[4-(2,3-dihydro-1,4-benzodioxin-5-yl)piperazin-1-yl]butyl]naphthalene-2-sulphonamide], the “α1 [%]” value with adrenergic α1 receptor is on record as 86%. Also, the inhibition at 1 µM in assay [1] is 96%; in assay [2], 100%; in assay [3], 26%; on dopaminergic D3 receptor it was 93%; in assay [4], 90%; in assay [5], -14%.
In the case of `Cc1[nH]c2ccc(Cl)cc2c1C1=CCN(CCCNS(=O)(=O)c2ccc(Cl)cc2)CC1` [Compound 444, 4-Chloro-N-[3-[4-(5-chloro-2-methyl-1H-indol-3-yl)-3,6-dihydro-2H-pyridin-1-yl]propyl]-benzenesulphonamide], in the assay on adrenergic α1 receptor, the “α1 [%]” value was 26%. Besides, the inhibition at 1 µM in assay [1] was determined as 59%; in assay [2] it was 51%; in assay [3], 87%; on dopaminergic D3 receptor, 74%; in assay [4], 65%; in assay [5], 44%.
Turning to `Cc1[nH]c2ccc(Cl)cc2c1C1=CCN(CCNS(=O)(=O)c2cccc(F)c2)CC1` [Compound 450, N-[2-[4-(5-Chloro-2-methyl-1H-indol-3-yl)-3,6-dihydro-2H-pyridin-1-yl]ethyl]-3-fluorobenzenesulphonamide], the “α1 [%]” value in the assay on adrenergic α1 receptor is on record as −1%. For the same molecule, the inhibition at 1 µM in assay [1] is 50%; on dopaminergic D2 receptor it was 15%; in assay [3], 96%; at dopaminergic D3 receptor it was 39%; in assay [5] it was 54%.
In the case of `Cc1[nH]c2ccc(Cl)cc2c1C1=CCN(CCNS(=O)(=O)c2ccc(Cl)cc2)CC1` [Compound 451, 4-Chloro-N-[2-[4-(5-chloro-2-methyl-1H-indol-3-yl)-3,6-dihydro-2H-pyridin-1-yl]ethyl]-benzensulphonamide], in the assay on adrenergic α1 receptor, the “α1 [%]” value is listed as −4%. Also, the inhibition at 1 µM in assay [1] came to 25%; at dopaminergic D2 receptor, 46%; in assay [3] it was 97%; on dopaminergic D3 receptor, 30%; in assay [5] it was 32%.
`Cc1[nH]c2ccc(Cl)cc2c1C1=CCN(CCNS(=O)(=O)c2cccc(O)c2)CC1` [Compound 453, N-[2-[4-(5-Chloro-2-methyl-1H-indol-3-yl)-3,6-dihydro-2H-pyridin-1-yl]ethyl]-3-hydroxybenzenesulphonamide]: the “α1 [%]” value in the assay with adrenergic α1 receptor is recorded as 23%. The inhibition at 1 µM worked out at 76% in assay [1]; 48% at dopaminergic D2 receptor; 107% in assay [3]; 56% on dopaminergic D3 receptor; 23% in assay [5].
